pIC50: −log10 of the molar value. Values after ≈ are worked out from the molar mass of the structure shown. Read-outs that look alike come from different tables or passages of the source.
Key:
[1] = biological target: T1, full-length beta-Catenin (Uniprot ID P35222) (Homo sapiens, UniProt P35222); experiment: Fluorescence polarization IC50 (beta-catenin / 5FAM-TCF4 10-53 competition); assay type: binding; conditions: read-out: beta-Catenin FP IC50
T1 construct: 10 nM full-length beta-Catenin (Uniprot ID P35222)
T1 sequence (P35222 1-781): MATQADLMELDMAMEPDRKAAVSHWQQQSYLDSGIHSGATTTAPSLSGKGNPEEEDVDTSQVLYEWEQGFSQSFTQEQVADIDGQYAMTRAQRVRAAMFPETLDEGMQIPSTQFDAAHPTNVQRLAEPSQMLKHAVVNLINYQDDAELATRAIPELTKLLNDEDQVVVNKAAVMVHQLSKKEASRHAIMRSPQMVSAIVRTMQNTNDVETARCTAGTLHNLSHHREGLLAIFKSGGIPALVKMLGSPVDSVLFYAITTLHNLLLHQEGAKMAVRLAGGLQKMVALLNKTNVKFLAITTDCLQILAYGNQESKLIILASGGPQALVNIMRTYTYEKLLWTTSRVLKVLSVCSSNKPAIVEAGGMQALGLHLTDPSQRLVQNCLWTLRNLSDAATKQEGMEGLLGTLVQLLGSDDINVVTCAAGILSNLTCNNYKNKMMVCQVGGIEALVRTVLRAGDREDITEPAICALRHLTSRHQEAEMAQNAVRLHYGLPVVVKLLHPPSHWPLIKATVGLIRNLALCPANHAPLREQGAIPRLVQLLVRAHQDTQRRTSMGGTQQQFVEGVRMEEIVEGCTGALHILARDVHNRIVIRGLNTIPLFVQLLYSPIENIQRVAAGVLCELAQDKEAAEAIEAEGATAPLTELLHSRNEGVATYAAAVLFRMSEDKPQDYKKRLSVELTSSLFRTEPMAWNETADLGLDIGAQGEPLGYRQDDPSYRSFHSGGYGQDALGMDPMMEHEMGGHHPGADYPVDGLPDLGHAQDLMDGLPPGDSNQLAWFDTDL

Solubility in PBS = assay type: physicochemical
Summary of the method: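 Steps: ultracentrifuge the peptide PBS solution, inject the supernatant on HPLC, inject a 50 μM peptide DMSO solution as reference, then calculate solubility as area ratio (PBS/DMSO) × 50 uM.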

[2] = biological target: T2, beta-catenin/TCF4 engagement (Homo sapiens, UniProt P35222); experiment: Nano-BRET target engagement assay (B-cat-Halo & TCF4-Luc in HEK293 cells); assay type: cell-based; conditions: absolute IC50; read-out: NanoBRET Abs IC50
T2 construct: expressed in transfected cells; host or cells: HEK293
T2 sequence (P35222 1-781): T1 sequence (P35222 1-781)

Row | SMILES | pIC50 ([1]; fluorescence polarization) | Solubility (Solubility in PBS; Solubility (uM)) [µM] | pIC50 [2] | Solubility (Solubility in PBS) [µM] | pIC50 [1]
1 | CC(=O)N1CCC[C@]12CC=CCCCC1(CCCC=CCCCOC(=O)N3CC[C@@](C(=O)N[C@@H](Cc4ccsc4)C(=O)N[C@@H](Cc4csc5ccccc45)C(=O)N[C@@H](CCC(N)=O)C(N)=O)(C3)NC(=O)[C@H](CC(C)C)NC(=O)[C@H](Cc3ccc(C#N)cc3)NC(=O)[C@H](C)NC(=O)[C@H](C)NC(=O)[C@H](CC(=O)O)NC(=O)[C@H](CC(=O)O)NC1=O)NC(=O)[C@H](CC(C)(C)C)NC(=O)[C@H](CC(=O)O)NC2=O (stereo partly drawn) [I-1202, Ac-PL3-Asp-Npg-B5-Asp-Asp-Ala-Ala-4CNF-Leu-PyrS2-3Thi-BztA-Gln-NH2] | 7.80 |  | 4.79 | 50 (≈ 97.1 µg/mL) | 
2 | CC(=O)N1CCC[C@]12CC=CCCCC1(CCCC=CCCCOC(=O)N3CC[C@@](C(=O)N[C@@H](Cc4ccccc4Cl)C(=O)N[C@@H](Cc4csc5ccccc45)C(=O)N[C@@H](CCC(N)=O)C(N)=O)(C3)NC(=O)[C@H](CCCCNC(C)C)NC(=O)[C@H](Cc3ccccc3)NC(=O)[C@H](C)NC(=O)[C@H](C)NC(=O)[C@H](CC(=O)O)NC(=O)[C@H](CC(=O)O)NC1=O)NC(=O)[C@H](CC(C)(C)C)NC(=O)[C@H](CC(=O)O)NC2=O (stereo partly drawn) [I-1278, Ac-PL3-Asp-Npg-B5-Asp-Asp-Ala-Ala-Phe-iPrLys-PyrS2-2C1F-BztA-Gln-NH2] | 8.00 | 25 (≈ 50.1 µg/mL) | 4.74 |  | 
3 | CC(=O)N1CCC[C@]12CC=CCCCC1(CCCC=CCCCOC(=O)N3CC[C@@](C(=O)N[C@@H](Cc4ccccc4F)C(=O)N[C@@H](Cc4csc5ccccc45)C(=O)N[C@@H](CCC(N)=O)C(N)=O)(C3)NC(=O)[C@H](CC(N)=O)NC(=O)[C@H](Cc3ccccc3)NC(=O)[C@H](C)NC(=O)[C@H](C)NC(=O)[C@H](CC(=O)O)NC(=O)[C@H](CC(=O)O)NC1=O)NC(=O)[C@H](CC(C)(C)C)NC(=O)[C@H](CC(=O)O)NC2=O (stereo partly drawn) [I-1320, Ac-PL3-Asp-Npg-B5-Asp-Asp-Ala-Ala-Phe-Asn-PyrS2-2FF-BztA-Gln-NH2] | 8.00 | 44 (≈ 84.9 µg/mL) | 4.58 |  | 
4 | CC(=O)N1CCC[C@]12CC=CCCCC1(CCCC=CCCCOC(=O)N3CC[C@@](C(=O)N[C@@H](Cc4ccccc4Cl)C(=O)N[C@@H](Cc4csc5ccccc45)C(=O)N[C@H](C(N)=O)[C@@H](C)O)(C3)NC(=O)[C@H](CCCCNC(C)C)NC(=O)[C@H](Cc3ccccc3)NC(=O)[C@H](C)NC(=O)[C@H](C)NC(=O)[C@H](CCC(=O)O)NC(=O)[C@H](CC(=O)O)NC1=O)NC(=O)[C@H](CC(C)(C)C)NC(=O)[C@H](CC(=O)O)NC2=O (stereo partly drawn) [I-1282, Ac-PL3-Asp-Npg-B5-Asp-Glu-Ala-Ala-Phe-iPrLys-PyrS2-2C1F-BztA-Thr-NH2] | 7.47 | 24 (≈ 47.8 µg/mL) | 4.37 |  | 
5 | CC(=O)N1CCC[C@]12CC=CCCCC1(CCCC=CCCCOC(=O)N3CC[C@@](C(=O)N[C@@H](Cc4ccccc4Cl)C(=O)N[C@@H](Cc4csc5ccccc45)C(=O)N[C@H](CO)[C@@H](C)O)(C3)NC(=O)[C@H]([C@@H](C)O)NC(=O)[C@H](Cc3ccccc3)NC(=O)[C@H](C)NC(=O)[C@H](C)NC(=O)[C@H]([C@@H](C)O)NC(=O)[C@H](CC(=O)O)NC1=O)NC(=O)[C@H](CC1CCCCC1)NC(=O)[C@H](CC(=O)O)NC2=O (stereo partly drawn) [I-1310, Ac-PL3-Asp-Cha-B5-Asp-Thr-Ala-Ala-Phe-Thr-PyrS2-2ClF-BztA-Thro1] | 6.91 |  | < 4.70 | 10 (≈ 19.1 µg/mL) | 

More lines, now with the values ahead:

Row | pIC50 ([1]; fluorescence polarization) | Solubility (Solubility in PBS; Solubility (uM)) [µM] | pIC50 [2] | Solubility (Solubility in PBS) [µM] | pIC50 [1] | SMILES
6 | 7.65 | 18 (≈ 33.7 µg/mL) | 5.14 |  |  | CC(=O)N1CCC[C@]12CC=CCCCC1(CCCC=CCCCCCC[C@@](C)(C(=O)N[C@@H](Cc3ccsc3)C(=O)N[C@@H](Cc3csc4ccccc34)C(=O)N[C@@H](CCC(N)=O)C(N)=O)NC(=O)[C@H](CC(C)C)NC(=O)[C@H](Cc3ccccc3)NC(=O)[C@H](C)NC(=O)[C@H](C)NC(=O)[C@H](CC(=O)O)NC(=O)[C@H](CC(=O)O)NC1=O)NC(=O)[C@H](CC(C)(C)C)NC(=O)[C@H](CC(=O)O)NC2=O (stereo partly drawn) [I-1188, Ac-PL3-Asp-Npg-B5-Asp-Asp-Ala-Ala-Phe-Leu-S8-3Thi-BztA-Gln-NH2]
7 |  | 15 (≈ 29.8 µg/mL) | 5.12 |  | 8.22 | CC(=O)N1CCC[C@]12CC=CCCCC1(CCCC=CCCCOC(=O)N3CC[C@@](C(=O)N[C@@H](Cc4ccccc4Cl)C(=O)N[C@@H](Cc4csc5ccccc45)C(=O)N[C@@H](CCCCNC(C)C)C(N)=O)(C3)NC(=O)[C@H](CC(N)=O)NC(=O)[C@H](Cc3ccccc3)NC(=O)[C@H](C)NC(=O)[C@H](C)NC(=O)[C@H](CC(=O)O)NC(=O)[C@H](CC(=O)O)NC1=O)NC(=O)[C@H](CC(C)(C)C)NC(=O)[C@H](CC(=O)O)NC2=O (stereo partly drawn) [I-1130, Ac-PL3-Asp-Npg-B5-Asp-Asp-Ala-Ala-Phe-Asn-PyrS2-2C1F-BztA-iPrLys-NH2]
8 | 7.66 |  | 4.96 | 10 (≈ 19.8 µg/mL) |  | CC(=O)N1CCC[C@]12CC=CCCCC1(CCCC=CCCCOC(=O)N3CC[C@@](C(=O)N[C@@H](Cc4ccsc4)C(=O)N[C@@H](Cc4csc5ccccc45)C(=O)N[C@H](CO)[C@@H](C)O)(C3)NC(=O)[C@H](Cc3cccc(C(F)(F)F)c3)NC(=O)[C@H](Cc3ccccc3)NC(=O)[C@H](C)NC(=O)[C@H](C)NC(=O)[C@H](CC(=O)O)NC(=O)[C@H](CC(=O)O)NC1=O)NC(=O)[C@H](CC(C)(C)C)NC(=O)[C@H](CC(=O)O)NC2=O (stereo partly drawn) [I-1371, Ac-PL3-Asp-Npg-B5-Asp-Asp-Ala-Ala-Phe-3F3MeF-PyrS2-3Thi-BztA-Thro1]
9 | 8.00 | 14 (≈ 28.2 µg/mL) | 4.65 |  |  | CC(=O)N1CCC[C@]12CC=CCCCC1(CCCC=CCCCOC(=O)N3CC[C@@](C(=O)N[C@@H](Cc4ccccc4Cl)C(=O)N[C@@H](Cc4csc5ccccc45)C(=O)N[C@@H](CCC(N)=O)C(N)=O)(C3)NC(=O)[C@H](CCCCNC(C)C)NC(=O)[C@H](Cc3ccccc3)NC(=O)[C@H](C)NC(=O)[C@H](C)NC(=O)[C@H](CCC(=O)O)NC(=O)[C@H](CC(=O)O)NC1=O)NC(=O)[C@H](CC(C)(C)C)NC(=O)[C@H](CC(=O)O)NC2=O (stereo partly drawn) [I-1281, Ac-PL3-Asp-Npg-B5-Asp-Glu-Ala-Ala-Phe-iPrLys-PyrS2-2C1F-BztA-Gln-NH2]
10 | 7.85 | 14 (≈ 26.5 µg/mL) | 4.84 |  |  | CC(=O)N1CCC[C@]12CC=CCCCC1(CCCC=CCCCOC(=O)N3CC[C@@](C(=O)N[C@@H](Cc4ccsc4)C(=O)N[C@@H](Cc4csc5ccccc45)C(=O)N[C@@H](CCC(N)=O)C(N)=O)(C3)NC(=O)[C@H]([C@@H](C)O)NC(=O)[C@H](Cc3ccccc3)NC(=O)[C@H](C)NC(=O)[C@H](C)NC(=O)[C@H]([C@@H](C)O)NC(=O)[C@H](CC(=O)O)NC1=O)NC(=O)[C@H](CC(C)(C)C)NC(=O)[C@H](CC(=O)O)NC2=O (stereo partly drawn) [I-1166, Ac-PL3-Asp-Npg-B5-Asp-Thr-Ala-Ala-Phe-Thr-PyrS2-3Thi-BztA-Gln-NH2]
11 | 7.49 |  | < 4.70 | 50 (≈ 98.9 µg/mL) |  | COCCOCCC(=O)N1CCC[C@]12CC=CCCCC1(CCCC=CCCCCCC[C@@](C)(C(=O)N[C@@H](Cc3ccccc3Cl)C(=O)N[C@@H](Cc3csc4ccccc34)C(=O)N[C@@H](CCC(N)=O)C(N)=O)NC(=O)[C@H]([C@@H](C)O)NC(=O)[C@H](Cc3ccccc3)NC(=O)[C@H](C)NC(=O)[C@H](C)NC(=O)[C@H](CC(=O)O)NC(=O)[C@H](CC(=O)O)NC1=O)NC(=O)[C@H](CC(C)(C)C)NC(=O)[C@H](CC(=O)O)NC2=O (stereo partly drawn) [I-1255, mPEG2-PL3-Asp-Npg-B5-Asp-Asp-Ala-Ala-Phe-Thr-S8-2C1F-BztA-Gln-NH2]
12 | 8.05 | 49 (≈ 97 µg/mL) | 5.01 |  |  | CC(=O)N1CCC[C@]12CC=CCCCC1(CCCC=CCCCOC(=O)N3CC[C@@](C(=O)N[C@@H](Cc4ccccc4C(F)(F)F)C(=O)N[C@@H](Cc4csc5ccccc45)C(=O)N[C@@H](CCC(N)=O)C(N)=O)(C3)NC(=O)[C@H](CC(N)=O)NC(=O)[C@H](Cc3ccccc3)NC(=O)[C@H](C)NC(=O)[C@H](C)NC(=O)[C@H](CC(=O)O)NC(=O)[C@H](CC(=O)O)NC1=O)NC(=O)[C@H](CC(C)(C)C)NC(=O)[C@H](CC(=O)O)NC2=O (stereo partly drawn) [I-1317, Ac-PL3-Asp-Npg-B5-Asp-Asp-Ala-Ala-Phe-Asn-PyrS2-2F3MeF-BztA-Gln-NH2]
13 |  | 39 (≈ 79.8 µg/mL) | 4.73 |  | 8.15 | CC(=O)N1CCC[C@]12CC=CCCCC1(CCCC=CCCCOC(=O)N3CC[C@@](C(=O)N[C@@H](Cc4ccccc4Cl)C(=O)N[C@@H](Cc4csc5ccccc45)C(=O)N[C@@H](CCC(N)=O)C(N)=O)(C3)NC(=O)[C@H](CC(N)=O)NC(=O)[C@H](Cc3ccccc3)NC(=O)[C@H](C)NC(=O)[C@H](CCCCNC(C)C)NC(=O)[C@H](CC(=O)O)NC(=O)[C@H](CC(=O)O)NC1=O)NC(=O)[C@H](CC(C)(C)C)NC(=O)[C@H](CC(=O)O)NC2=O (stereo partly drawn) [I-1131, Ac-PL3-Asp-Npg-B5-Asp-Asp-iPrLys-Ala-Phe-Asn-PyrS2-2C1F-BztA-Gln-NH2]

From patent publication US20240116985A1, “STAPLED PEPTIDES AND METHODS THEREOF” (priority 2020, published 2024)
